Assay results taken from ChEMBL document CHEMBL2424622, “Development of amino-pyrimidine inhibitors of c-Jun N-terminal kinase (JNK): kinase profiling guided optimization of a 1,2,3-benzotriazole lead” (Bioorg Med Chem Lett, 2013).

Experiments:
[1] = target: NT-3 growth factor receptor (Homo sapiens) (UniProt Q16288); assay: Competitive binding affinity to TRKC (unknown origin) at 10 uM in presence of ATP relative to control
[2] = target: T1, Serine/threonine-protein kinase NLK (Homo sapiens) (UniProt Q9UBE8); assay: Competitive binding affinity to NLK (unknown origin) at 10 uM in presence of ATP relative to control
T1 sequence (whole entry): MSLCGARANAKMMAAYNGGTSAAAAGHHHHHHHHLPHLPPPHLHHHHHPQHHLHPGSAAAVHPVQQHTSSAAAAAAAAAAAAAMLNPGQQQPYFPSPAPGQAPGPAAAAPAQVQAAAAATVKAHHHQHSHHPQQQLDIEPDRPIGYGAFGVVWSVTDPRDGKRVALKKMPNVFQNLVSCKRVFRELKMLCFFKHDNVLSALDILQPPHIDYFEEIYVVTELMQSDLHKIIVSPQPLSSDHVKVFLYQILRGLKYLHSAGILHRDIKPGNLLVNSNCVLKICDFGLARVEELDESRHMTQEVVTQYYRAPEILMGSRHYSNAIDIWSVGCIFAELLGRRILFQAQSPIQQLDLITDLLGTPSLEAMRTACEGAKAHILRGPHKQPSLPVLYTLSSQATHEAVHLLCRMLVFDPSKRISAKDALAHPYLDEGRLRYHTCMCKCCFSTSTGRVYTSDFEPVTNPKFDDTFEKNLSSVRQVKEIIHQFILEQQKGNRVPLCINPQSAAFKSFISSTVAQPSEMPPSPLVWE

[3] = target: T2, Serine/threonine-protein kinase Nek1 (Homo sapiens) (UniProt Q96PY6); assay: Competitive binding affinity to NEK1 (unknown origin) at 10 uM in presence of ATP relative to control
T2 sequence (whole entry): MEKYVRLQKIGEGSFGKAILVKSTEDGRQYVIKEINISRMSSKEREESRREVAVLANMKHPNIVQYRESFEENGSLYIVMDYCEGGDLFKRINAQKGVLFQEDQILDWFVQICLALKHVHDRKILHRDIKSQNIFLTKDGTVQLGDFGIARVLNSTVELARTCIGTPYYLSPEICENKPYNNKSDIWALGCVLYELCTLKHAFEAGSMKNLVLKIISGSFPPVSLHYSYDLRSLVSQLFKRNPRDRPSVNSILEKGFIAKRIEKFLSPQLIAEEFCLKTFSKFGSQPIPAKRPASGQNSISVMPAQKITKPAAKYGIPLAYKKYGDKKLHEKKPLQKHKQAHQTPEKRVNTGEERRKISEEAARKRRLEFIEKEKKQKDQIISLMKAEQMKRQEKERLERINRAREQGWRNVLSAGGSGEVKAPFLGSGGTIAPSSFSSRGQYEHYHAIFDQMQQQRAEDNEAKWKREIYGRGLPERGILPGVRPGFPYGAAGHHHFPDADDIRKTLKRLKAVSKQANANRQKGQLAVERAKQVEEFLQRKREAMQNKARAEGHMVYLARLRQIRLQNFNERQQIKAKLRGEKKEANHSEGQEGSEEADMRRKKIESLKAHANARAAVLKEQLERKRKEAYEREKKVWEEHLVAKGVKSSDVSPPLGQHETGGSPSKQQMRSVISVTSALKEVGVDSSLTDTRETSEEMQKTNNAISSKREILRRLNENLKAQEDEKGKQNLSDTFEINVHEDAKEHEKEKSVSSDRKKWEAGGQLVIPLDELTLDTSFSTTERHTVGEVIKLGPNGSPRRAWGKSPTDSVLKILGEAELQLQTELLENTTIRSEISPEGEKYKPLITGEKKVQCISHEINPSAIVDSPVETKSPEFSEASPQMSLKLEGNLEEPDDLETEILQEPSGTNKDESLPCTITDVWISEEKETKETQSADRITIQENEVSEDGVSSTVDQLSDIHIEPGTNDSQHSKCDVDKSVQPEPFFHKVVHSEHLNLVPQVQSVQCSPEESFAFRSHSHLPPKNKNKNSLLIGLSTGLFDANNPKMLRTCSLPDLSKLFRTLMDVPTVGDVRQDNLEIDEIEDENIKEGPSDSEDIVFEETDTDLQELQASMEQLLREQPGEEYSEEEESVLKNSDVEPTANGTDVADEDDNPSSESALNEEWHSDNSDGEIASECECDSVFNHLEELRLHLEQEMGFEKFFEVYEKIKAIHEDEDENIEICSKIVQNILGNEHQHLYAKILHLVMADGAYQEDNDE

[4] = target: T3, Serine/threonine-protein kinase 4 (Homo sapiens) (UniProt Q13043); assay: Competitive binding affinity to STK4 (unknown origin) at 10 uM in presence of ATP relative to control
T3 sequence (whole entry): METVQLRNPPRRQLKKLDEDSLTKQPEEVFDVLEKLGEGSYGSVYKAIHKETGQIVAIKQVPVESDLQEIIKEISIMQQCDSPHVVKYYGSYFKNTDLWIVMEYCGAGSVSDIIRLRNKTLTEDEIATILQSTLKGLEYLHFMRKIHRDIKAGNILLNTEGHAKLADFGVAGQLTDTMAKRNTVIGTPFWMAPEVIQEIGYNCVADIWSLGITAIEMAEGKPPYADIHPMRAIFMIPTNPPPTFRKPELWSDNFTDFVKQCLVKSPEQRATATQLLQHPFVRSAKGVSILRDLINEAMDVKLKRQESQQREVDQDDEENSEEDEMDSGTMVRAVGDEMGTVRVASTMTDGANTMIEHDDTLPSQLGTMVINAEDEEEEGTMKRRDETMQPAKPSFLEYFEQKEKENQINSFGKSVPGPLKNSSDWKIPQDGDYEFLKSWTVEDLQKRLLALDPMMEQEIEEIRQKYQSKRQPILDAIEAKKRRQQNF

Sequence of NT-3 growth factor receptor (Homo sapiens) (Q16288 32-839 limits assumed): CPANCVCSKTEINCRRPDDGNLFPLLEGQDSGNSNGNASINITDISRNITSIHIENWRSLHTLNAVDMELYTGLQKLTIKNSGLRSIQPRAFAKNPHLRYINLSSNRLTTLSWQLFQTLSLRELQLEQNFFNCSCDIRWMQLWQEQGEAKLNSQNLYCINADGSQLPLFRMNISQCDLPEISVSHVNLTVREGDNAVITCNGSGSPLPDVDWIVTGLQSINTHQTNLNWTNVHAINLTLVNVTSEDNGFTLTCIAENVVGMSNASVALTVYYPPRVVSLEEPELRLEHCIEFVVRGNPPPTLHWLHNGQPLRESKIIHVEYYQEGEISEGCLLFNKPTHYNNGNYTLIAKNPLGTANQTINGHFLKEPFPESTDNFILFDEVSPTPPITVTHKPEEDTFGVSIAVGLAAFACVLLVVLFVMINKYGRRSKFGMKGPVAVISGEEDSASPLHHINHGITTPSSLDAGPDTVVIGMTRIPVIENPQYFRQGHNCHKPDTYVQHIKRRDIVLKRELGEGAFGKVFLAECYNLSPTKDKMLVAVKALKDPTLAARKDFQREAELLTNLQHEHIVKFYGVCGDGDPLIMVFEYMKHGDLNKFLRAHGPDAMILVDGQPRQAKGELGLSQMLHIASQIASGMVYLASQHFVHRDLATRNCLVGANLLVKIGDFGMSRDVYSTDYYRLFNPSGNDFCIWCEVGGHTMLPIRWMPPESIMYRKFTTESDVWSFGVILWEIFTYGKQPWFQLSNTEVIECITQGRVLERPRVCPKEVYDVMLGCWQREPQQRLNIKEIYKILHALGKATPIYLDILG

Row | Structure (SMILES) | inhibition [1] [%] | inhibition [2] [%] | inhibition [3] [%] | inhibition [4] [%]
1 | CS(=O)(=O)CCCOc1cccc2c1ccn2-c1ccnc(N[C@H]2CC[C@H](C(=O)N3CCC(O)CC3)CC2)n1 | – | – | > 85 | –
2 | N[C@H]1CC[C@H](Nc2nccc(-n3nnc4ccccc43)n2)CC1 | – | – | – | < 50
3 | O=C([C@H]1CC[C@H](Nc2nccc(-n3nnc4ccccc43)n2)CC1)N1CCOCC1 | – | – | – | < 50
4 | O[C@H]1CC[C@H](Nc2nccc(-c3n[nH]c4ccccc34)n2)CC1 | 99 | 90 | – | < 50

Now from value to molecule:

Row | inhibition [1] [%] | inhibition [2] [%] | inhibition [3] [%] | inhibition [4] [%] | Structure (SMILES)
5 | < 50 | < 50 | 96 | – | O[C@H]1CC[C@H](Nc2nccc(-n3ncc4ccccc43)n2)CC1
6 | < 50 | < 50 | 84 | – | O[C@H]1CC[C@H](Nc2nccc(-n3ccc4ccccc43)n2)CC1
7 | < 50 | < 50 | 98 | – | O[C@H]1CC[C@H](Nc2nccc(-n3nnc4ccccc43)n2)CC1
